Read-outs that look alike come from different tables or passages of the source. Marks after values point to notes of the source that are not given here.
Legend:
[1] = system: hiPSC-derived neurons co-cultured with human primary astrocytes in 2D; assay: Ca2+ transient oscillation assay (FDSS), 2D co-culture; format: cell-based; settings: for effect on peak number / Ca2+ neuronal oscillations, in words: 2D format; for activation at 0.37 µM / activation at 1.11 µM / activation at 3.33 µM / activation at 10 µM / activation at 3.7 µM / activation at 11.11 µM / activation at 33.33 µM / activation at 100 µM: Homo sapiens, 1 h, 60 min
How it was run: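 hiPSC-derived excitatory neurons (CW50065, Quick-Neuron EX-SeV) co-cultured with human primary astrocytes at 4:1 (10,000:2500 cells per well). Cal-520-loaded cells in HBSS with 2 mM CaCl2 and 10 mM HEPES were pretreated with 0.04% DMSO.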

[2] = system: hiPSC-derived neurons co-cultured with human primary astrocytes in 3D; assay: Ca2+ transient oscillation assay (FDSS), 3D spheroids; format: cell-based; settings: for Area under the curve - 3D Mean / Peak Number—3D Mean / Peak amplitude - 3D Mean / Peak width - 3D Mean / Peak-to-peak interval - 3D Mean: 60 min
How it was run: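 Fura-2 fluorescence was read twice for 20 min each: a baseline 10 min after 0.04% DMSO, and again 60 min after compound addition at nominal final concentration. The 3D co-cultures (1:1 hiPSC neurons from a donor and human astrocytes, 8000 each) matured 5 weeks in BrainPhys medium after a 1-week differentiation.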

[3] = ref PharmaPendium, cited from earlier work
[4] = read-out: Area under the curve - 2D Mean
[5] = read-out: Peak amplitude - 2D Mean
[6] = read-out: Peak-to-peak interval - 2D Mean
[7] = Table 1, peak plasma concentration in men, free therapeutic Cmax
[8] = Table 2, highest plasma concentration in humans after the therapeutic dose

## Nc1ccncc1 [4-AP, 4-Aminopyridine]
[1]
  effect on peak number / Ca2+ neuronal oscillations, in words: significantly increased peak number
[1]; 2D, 4-AP 30 µM, kainic acid 100 µM
  response of positive controls on Ca2+ transient oscillations: significant responses
[1]; 4-AP at 30 µM, kainic acid at 10 µM
  change of Ca2+ neuronal oscillations (Figure 1): large increases
[1]; [4]
  activation at 0.37 µM: 39.5%
  activation at 1.11 µM: 18.7%
  activation at 3.33 µM: 17.6%
  activation at 10 µM: 1.3%
[1]; read-out: Peak Number—2D Mean
  activation at 0.37 µM: 9%
  activation at 1.11 µM: 70.3%
  activation at 3.33 µM: 85.8%
  activation at 10 µM: 110%
[1]; [5]
  activation at 0.37 µM: 13.3%
  activation at 1.11 µM: 7.8%
  activation at 3.33 µM: 10.4%
  activation at 10 µM: 8.5%
[1]; read-out: Peak width - 2D Mean
  activation at 0.37 µM: 34%
  activation at 1.11 µM: 14.3%
  activation at 3.33 µM: 12.6%
  activation at 10 µM: -6.3%
[1]; [6]
  activation at 0.37 µM: -13%
  activation at 1.11 µM: -29.8%
  activation at 3.33 µM: -42.4%
  activation at 10 µM: -49.8%
[2]; 0.37 µM
  Area under the curve - 3D Mean: 53.7 % change from baseline
  Peak Number—3D Mean: 16.7 % change from baseline
  Peak amplitude - 3D Mean: 44.3 % change from baseline
  Peak width - 3D Mean: 2.8 % change from baseline
  Peak-to-peak interval - 3D Mean: −9.2 % change from baseline
[2]; 1.11 µM
  Area under the curve - 3D Mean: 54.1 % change from baseline
  Peak Number—3D Mean: 62.4 * % change from baseline
  Peak amplitude - 3D Mean: 39.6 % change from baseline
  Peak width - 3D Mean: 7.7 % change from baseline
  Peak-to-peak interval - 3D Mean: −24.1 % change from baseline
[2]; 3.33 µM
  Area under the curve - 3D Mean: 97.2 % change from baseline
  Peak Number—3D Mean: 24.1 * % change from baseline
  Peak amplitude - 3D Mean: 46.1 % change from baseline
  Peak width - 3D Mean: 35.1 % change from baseline
  Peak-to-peak interval - 3D Mean: −17.6 % change from baseline
[2]; 10 µM
  Area under the curve - 3D Mean: 72.3 % change from baseline
  Peak Number—3D Mean: 89.0 ** % change from baseline
  Peak amplitude - 3D Mean: 42.8 % change from baseline
  Peak width - 3D Mean: 21.4 % change from baseline
  Peak-to-peak interval - 3D Mean: −47.2 % change from baseline
[2]; 3D, 4-AP 30 µM, kainic acid 100 µM
  response of positive controls on Ca2+ transient oscillations: significant responses
[3]; [7]
  Free Cmax: 25 to 75 nM
[3]; [8]
  Free Cmax: 25 to 75 nM

## NCCc1c[nH]c2ccc(O)cc12 [Serotonin]
[1]
  effect on peak number / Ca2+ neuronal oscillations, in words: significantly reduced peak number
[1]; [4]
  activation at 3.7 µM: 12.8%
  activation at 11.11 µM: 11.1%
  activation at 33.33 µM: -8.9%
  activation at 100 µM: -2.6%
[1]; read-out: Peak Number—2D Mean
  activation at 3.7 µM: -23.4%
  activation at 11.11 µM: -1.7%
  activation at 33.33 µM: -43.8%
  activation at 100 µM: -45.8%
[1]; [5]
  activation at 3.7 µM: -4.9%
  activation at 11.11 µM: -13.7%
  activation at 33.33 µM: -27.1%
  activation at 100 µM: -16.6%
[1]; read-out: Peak width - 2D Mean
  activation at 3.7 µM: 17.3%
  activation at 11.11 µM: 18.3%
  activation at 33.33 µM: -1.4%
  activation at 100 µM: 11.4%
[1]; [6]
  activation at 3.7 µM: 28.4%
  activation at 11.11 µM: 65.8%
  activation at 33.33 µM: 36.4%
  activation at 100 µM: 55.3%
[2]; 3.7 µM
  Area under the curve - 3D Mean: −19.4 % change from baseline
  Peak Number—3D Mean: −70.7 ** % change from baseline
  Peak amplitude - 3D Mean: −4.3 % change from baseline
  Peak width - 3D Mean: −54.0 % change from baseline
  Peak-to-peak interval - 3D Mean: −58.0 % change from baseline
[2]; 11.11 µM
  Area under the curve - 3D Mean: 19.8 % change from baseline
  Peak Number—3D Mean: −69.1 ** % change from baseline
  Peak amplitude - 3D Mean: 33.7 % change from baseline
  Peak width - 3D Mean: −31.8 % change from baseline
  Peak-to-peak interval - 3D Mean: −37.9 % change from baseline
[2]; 33.33 µM
  Area under the curve - 3D Mean: −21.3 % change from baseline
  Peak Number—3D Mean: −82.1 ** % change from baseline
  Peak amplitude - 3D Mean: −3.1 % change from baseline
  Peak width - 3D Mean: −52.3 % change from baseline
  Peak-to-peak interval - 3D Mean: 29.2 % change from baseline
[2]; 100 µM
  Area under the curve - 3D Mean: −21.1 % change from baseline
  Peak Number—3D Mean: −80.3 ** % change from baseline
  Peak amplitude - 3D Mean: −10.3 % change from baseline
  Peak width - 3D Mean: −55.4 % change from baseline
  Peak-to-peak interval - 3D Mean: −82.0 % change from baseline
[3]; [7]
  Free Cmax: 1000 to 2000 nM
[3]; [8]
  Free Cmax: 1000 to 2000 nM
